# From the Kinase Knowledgebase extract (Sharma et al. 2016)
# Biological target: MAPK14 (human) (UniProt Q16539)
# Experiment: LPS Induced TNF-alpha Production Inhibition (THP1 Cells)
# Settings: not given
# Sequence of MAPK14 (human) (Q16539 whole entry, looked up): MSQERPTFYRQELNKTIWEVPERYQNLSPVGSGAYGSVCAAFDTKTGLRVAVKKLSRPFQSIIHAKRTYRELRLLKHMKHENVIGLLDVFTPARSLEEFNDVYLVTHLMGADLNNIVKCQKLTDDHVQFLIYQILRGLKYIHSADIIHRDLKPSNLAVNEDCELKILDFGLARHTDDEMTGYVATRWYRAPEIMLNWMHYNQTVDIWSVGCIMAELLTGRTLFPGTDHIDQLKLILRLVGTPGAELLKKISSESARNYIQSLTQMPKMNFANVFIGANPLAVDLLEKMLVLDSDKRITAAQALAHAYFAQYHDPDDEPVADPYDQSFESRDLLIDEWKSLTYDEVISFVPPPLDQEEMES
row,Structure (SMILES),IC50 [µM]
1,OCCNc1cc(-c2[nH]c3nccnc3c2-c2ccc(F)cc2)ccn1,0.241
2,Fc1ccc(-c2c(-c3ccncc3)n(OCCN3CCCC3)c3cccnc23)cc1,0.00012

# Next, values leading:
row,IC50 [µM],Structure (SMILES)
1,1.1,Fc1ccc(-c2c(-c3ccncc3)[nH]c3nccnc23)cc1
2,8.83,N#CCCCn1c(-c2ccncc2)c(-c2ccc(F)cc2)c2nccnc21
3,0.00046,COn1c(-c2ccncc2)c(-c2ccc(F)cc2)c2ncccc21
4,0.0003,Fc1ccc(-c2c(-c3ccncc3)n(CCN3CCCCC3)c3cccnc23)cc1

# Tested on: MAPK14 (Balb/c mice)
# Experiment: LPS Induced TNF-alpha Prodcution Inhibition (BALB/c Mice)
# Settings: dose or concentration not given here
row,Structure (SMILES),inhibition [%]
1,Fc1ccc(-c2c(-c3ccncc3)oc3cccnc23)cc1,86
2,Fc1ccc(-c2c(-c3ccncc3)[nH]c3cccnc23)cc1,68
3,Fc1ccc(-c2c(-c3ccncc3)n(OCCN3CCOCC3)c3cccnc23)cc1,56
4,COn1c(-c2ccncc2)c(-c2ccc(F)cc2)c2ncccc21,75
